Results on 7 compounds are retold here after patent US20040157845A1, “Vanilloid receptor ligands and their use in treatments” (Amgen Inc., priority 2003, published 2004).

By melting point is commonly meant the temperature, or range, at which the solid turns liquid.

`O=C(Nc1ccc(F)c(F)c1)c1csc(Cc2c(Cl)cccc2Cl)n1` [Example 17, {2-[(2,6-Dichlorophenyl)methyl](1,3-thiazol-4-yl)}-N-(3,4-difluorophenyl)-carboxamide] came in with a melting point of 113 to 116 °C.

Compound `FC(F)(F)c1ccc2nc(-c3coc(Cc4c(Cl)cccc4Cl)n3)[nH]c2c1` [Example 21, 2-[(2,6-Dichlorophenyl)methyl]-4-[6-(trifluoromethyl)benzimidazol-2-yl]-1,3-oxazole] returned a melting point of 201 to 202 °C.

As to `FC(F)(F)c1ccc2nc(-c3c[nH]c(Cc4c(Cl)cccc4Cl)n3)[nH]c2c1` [Example 20, 2-{2-[(2,6-Dichlorophenyl)methyl]imidazol-4-yl}-6-(trifluoromethyl)-benzimidazole], the melting point was in the range of 281 to 282 °C.

Turning to `FC(F)(F)c1ccc2[nH]c(-c3csc(Nc4c(Cl)cccc4C(F)(F)F)n3)nc2c1` [Example 73], the melting point is 188 to 210 °C.

`O=C(Nc1ccc(Br)cc1)c1csc(Cc2c(F)cccc2Cl)n1` [Example 34] displayed a melting point of 111.8 to 112.5 °C.

`O=C(Nc1ccc(Br)cc1)c1csc(Nc2c(Cl)cccc2Cl)n1` [Example 56] displayed a melting point of 125.9 to 126.9 °C.

For `O=C(Nc1ccc(Br)cc1)c1csc(Nc2ccccc2F)n1` [Example 55], the melting point fell in the range of 198.4 to 199.7 °C.
